# In publication PMC5761851, “Application of a phenotypic drug discovery strategy to identify biological and chemical starting points for inhibition of TSLP production in lung epithelial cells” (PLoS ONE, 2018):
# “And” between values parts separate entries of the source, which are not always exact repeats. Equal values may be shown once. Read-outs that look alike come from different tables or passages of the source.
# Tests used:
# CHO-K1 cells = test: CHO-K1 viability (ATPlite); assay type: cell-based
# Protocol: The viability of NHBE and CHO-K1 cells was quantified using ATP as an indirect read out of the potential cytotoxicity of the compounds. […] Plates were shaken and covered with aluminium foil for 25 min. Luminescence was measured in an Envision reader (Perkin Elmer). Evaluation of viability in CHO-K1 cells was used as an internal compound cytotoxicity standard across cellular assays. […] The plates were incubated for 24 h at 37°C in 5% CO2. After the incubation period, the culture medium was removed and washed with 100 μl of DPBS. Test compounds were dissolved and serially diluted in 100% DMSO. A final 1/100 dilution of each concentration was performed using F12 culture medium with 0.5% FBS. A volume of 100 μl culture medium containing the compounds or 1% DMSO (for control wells) was added to the wells containing the cells and the plate was incubated again 24h. After 24h of compound exposure, cells were washed with DPBS. Then, 100 μl of PBS were added, followed by the addition of 100 μl of ATPlite™ reagent. The plate was shaken for 25 minutes using a microtiter plate shaker. Luminescence was measured using a Luminoskan Ascent luminometer (Thermo Fisher Scientific).
# For CHO-K1 viability assays, a standard curve of cells was included in the plate. Luminescence values versus cell number were plotted and the data adjusted to a linear equation. Luminescence values of the samples were interpolated to obtain number of cells. IC50 values were obtained by non-linear regression using Activity Base software (IDBS) and a four-parameter log equation.
# LAD2 cells degranulation = test: Syk dependent LAD2 cells degranulation; assay type: cell-based, human
# Protocol: Normal human bronchial epithelial cells (NHBE) (Lonza CC-2540,) corresponding to 2 different lots derived from 2 human healthy donors, henceforth referred to as donors #1 and #2, were purchased from Lonza, who provided the cells after obtaining permission for use in research applications by informed consent. Cells were cultured in 5% CO2 at 37°C according to the manufacturer´s instructions using Lonza´s Bronchial Epithelial Basal Medium (BEBM) (CC-3171) supplemented with Lonza´s Bronchial Epithelial Cell Growth Medium bullet kit (BEGM) (CC-4175), and grown in collagen coated T-75 and T-175 tissue culture flasks as required (Becton Dickinson 356485 and 356487). Subculturing after trypsinization and amplification was performed using Lonza´s reagent pack subculture reagents (CC-5034) following the manufacturer´s instructions. CHO-K1 and THP-1 cells were purchased from the ATCC through LGC standards (ATCC CCL-61 and TIB-202 respectively). The LAD2 cell line is a human mast cell line established at the National Institutes of Health (Bethesda, Maryland, U.S.).
# Quantification of enzymatic p38 activity and p38-dependent TNF production in THP-1 cells was performed as previously described. Enzymatic Syk kinase activity assays and Syk dependent LAD2 cells degranulation assays were performed as previously described. PI3Kδ dependent pAkt phosphorylation in macrophage colony-stimulating factor (M-CSF) stimulated THP-1 cells was measured as previously described.
# [1] = system: TSLP production in NHBE cells; test: TSLP HTRF assay (TSLP production in poly I:C / IL-4 stimulated NHBE cells); assay type: cell-based, human
# Protocol: For dose response curves determinations, stocks of test compounds at a concentration of 1.33x10^-3 M in DMSO were sequentially diluted at 1:4 dilution steps before further 1/50 dilution in BEBM medium containing 1x ITS and 0.1% BSA. For the highest 4 μM concentration test compounds were resuspended in DMSO at a concentration of 2.5x10^-3 M and diluted 1/25 in BEBM medium containing 1x ITS and 0.1% BSA before adding 1 μl to the wells containing the cells.
# All subsequent steps were automated using a Sciclone® G3 workstation (Perkin Elmer) with a Twister™ II robot (Perkin Elmer). […] 1 μl of test compound solution prepared at 25x concentration was added to the wells containing NHBE cells. The plates were then incubated during 90 minutes at 37°C, 5% CO2, 90% humidity before adding poly I:C (Invivogen HMW Tirl-pic-5) and human IL-4 (Peprotech 200–04) stimulus in 4 μl of BEBM medium containing 1x ITS, 0.1% BSA and 0.1% DMSO using a Multidrop™. […] Cells were then incubated for 24h in the presence of test compounds and stimulus at 37°C, 5% CO2 and 90% humidity conditions. After the 24h incubation period the plates were transferred to a CyBi®-Well platform (CyBio AG) to collect 10 μl of the supernatants which were transferred to a new plate. TSLP levels in the supernatant were determined using a homogeneous Time-Resolved Fluorescence (HTRF) assay custom developed by Cisbio. The assay was based in the use of a donor dye (europium cryptate) coupled to a monoclonal anti-TSLP antibody and an acceptor dye (d2) coupled to a second polyclonal anti-TSLP antibody. […] 10 μl of the resulting solution was then used to determine TSLP levels as described above.
# The standard curve was built with eight points prepared in ITS/BSA in BEBM medium without supplements, starting at 700 pg/ml and diluted 1:2, with medium alone being zero TSLP. Fitting model corresponded to equation 100 of Excel fit software. Data from the primary phenotypic screen was visualized using Vortex (Dotmatics). […] For compound selection the maximum inhibition of the two individual duplicate values was taken into account. Dose response confirmation was performed at single point in the 2 donors tested. 9 point curves were run starting at 4 μM concentration by doing serial 1:4 dilutions in cells derived from both donors.
# Syk = Syk (Homo sapiens, UniProt P43405); test: Enzymatic Syk kinase activity assay; assay type: biochemical
# [2] = Cricetulus griseus, CHO-K1, geometric mean, read-out: Inhibition of CHO viability (IC50, μM) (95% CI)
# [3] = individual values, read-out: Inhibition of CHO viability (IC50 mM)
# [4] = Homo sapiens, LAD2, geometric mean, read-out: Activity in reference cell based assay (IC50, μM) (95% CI) LAD2 cells degranulation
# [5] = Homo sapiens, LAD2, individual values, read-out: Cellular activity (IC50, mM) LAD2 cells degranulation
# [6] = individual values, read-out: Cellular activity (IC50, mM) LAD2 cells degranulation
# [7] = Homo sapiens, NHBE, 24 h, NHBE cells donor #1, poly I:C / IL-4, 24h, geometric mean, read-out: Inhibition of TSLP protein production (IC50, μM) (95% CI)
# [8] = individual values, donor #1, read-out: Inhibition of TSLP production in NHBE (IC50)
# [9] = individual values, read-out: Biochemical activity (IC50, mM) (Syk)
# [10] = geometric mean, read-out: Activity in reference biochemical assay (IC50, μM) (95% CI) Syk
SMILES,IC50 (LAD2 cells degranulation; [4]) [µM],IC50 (LAD2 cells degranulation; [5]) [µM],IC50 (LAD2 cells degranulation; [6]) [µM],"IC50 [1, 7] [µM]","IC50 [1, 8]",IC50 (Syk; [9]),IC50 (Syk; [10]) [nM],IC50 (CHO-K1 cells; [2]) [µM],IC50 (CHO-K1 cells; [3]),Inhibition of CHO viability % Inhibition ± SD at 3.75 μM (CHO-K1 cells),Inhibition of CHO viability % at 3.75 micromolar (CHO-K1 cells; individual values),"IC50 (CHO-K1 cells; Cricetulus griseus, CHO-K1, individual values, read-out: Inhibition of CHO viability (IC50 mM)) [µM]",Inhibition of CHO viability % Inhibition ± SD at 3.12 μM (CHO-K1 cells; 3.12 μM),Inhibition of CHO viability % at 3.12 micromolar (CHO-K1 cells; individual values)
CCn1cc(-c2cccc(-c3cnc(N)c(C(=O)NC4C5CC6CC4CC(O)(C6)C5)n3)c2)cn1 (centres unmarked) [compound 9],0.182,0.183,0.181,0.302,0.584 µM and 0.2 µM and 0.237 µM,24 nM and 22 nM,–,7,8.21 µM and 7.68 µM and 4.44 µM and 9.37 µM and 6.42 µM,–,–,–,–,–
COc1cc(-c2cnn(C)c2)cc(-c2cnc(N)c(C(=O)N[C@@H]3[C@@H]4C[C@@H]5C[C@H]3C[C@@](O)(C5)C4)n2)c1 [compound 10],0.118,0.124,0.113,0.277,0.584 µM and 0.198 µM and 0.184 µM,33.8 nM and 33.1 nM,33,–,–,35.3 % ± 5.5,42.5% and 36.2% and 31.8% and 30%,–,–,–
Nc1ncc(-c2ccc3[nH]ncc3c2)nc1C(=O)NC1C2CC3CC1CC(O)(C3)C2 (centres unmarked) [compound 13],–,–,–,0.19,0.365 µM and 0.164 µM and 0.116 µM,397 nM and 280 nM,334,–,–,–,–,–,36 % ± 3,39.6% and 37.7% and 35.3% and 31.4%
COc1ccc(N(C)c2nc(C)nc3ccccc23)cc1 [compound 16],–,–,–,0.007,–,–,–,28.8,–,–,–,–,–,1.13% and 6.28% and -14.28% and -12.18%

# Continued by falling IC50 [1, 7], values first:
IC50 (LAD2 cells degranulation; [4]) [µM],IC50 (LAD2 cells degranulation; [5]) [µM],IC50 (LAD2 cells degranulation; [6]) [µM],"IC50 [1, 7] [µM]","IC50 [1, 8]",IC50 (Syk; [9]),IC50 (Syk; [10]) [nM],SMILES,IC50 (CHO-K1 cells; [2]) [µM],IC50 (CHO-K1 cells; [3]),Inhibition of CHO viability % Inhibition ± SD at 3.75 μM (CHO-K1 cells),Inhibition of CHO viability % at 3.75 micromolar (CHO-K1 cells; individual values),"IC50 (CHO-K1 cells; Cricetulus griseus, CHO-K1, individual values, read-out: Inhibition of CHO viability (IC50 mM)) [µM]",Inhibition of CHO viability % Inhibition ± SD at 3.12 μM (CHO-K1 cells; 3.12 μM),Inhibition of CHO viability % at 3.12 micromolar (CHO-K1 cells; individual values)
0.26,0.313,0.217,1.14,1.45 µM and 1.79 µM and 0.56 µM,62 nM and 71 nM,66,Nc1ncc(-c2cccc(-c3cccnc3)c2)nc1C(=O)NC1C2CC3CC1CC(O)(C3)C2 (centres unmarked) [compound 11],7.85,8.4 µM and 7.19 µM and 7.56 µM,–,–,8.33,–,–
0.403,0.409,0.398,0.359,0.237 µM and 0.804 µM and 0.244 µM,209 nM and 159 nM,–,Nc1ncc(-c2ccc3cn[nH]c3c2)nc1C(=O)NC1C2CC3CC1CC(O)(C3)C2 (centres unmarked) [compound 14],–,–,42 % ± 10,51.55% and 51.37% and 30.13% and 37.95%,–,–,–
0.118,0.107,0.131,0.253,0.376 µM and 0.251 µM and 0.172 µM,25 nM and 21 nM,22,Cn1cc(-c2cccc(-c3cnc(N)c(C(=O)NC4C5CC6CC4CC(O)(C6)C5)n3)c2)cn1 (centres unmarked) [compound 12],–,–,19 % ± 1,20.7% and 17.8% and 20.2% and 20.8%,–,–,–
